Results published in publication PMC4844176 (Xenobiotica; the fate of foreign compounds in biological …, 2015).
≈ marks a conversion by molar mass, not a printed value. Where “and” joins values, the source holds several entries; their conditions need not be identical. Equal values may be shown once. Read-outs that look alike come from different tables or passages of the source.

Key:
UGT1A7 = target: T1, UGT1A7 (Homo sapiens, UniProt Q9HAW7); test: Screening for aprepitant glucuronidation, UGT1A7 Supersomes; type: in vitro ADME; details: UGT1A7, 5 and 250 µM aprepitant
T1 sequence (Q9HAW7 26-530): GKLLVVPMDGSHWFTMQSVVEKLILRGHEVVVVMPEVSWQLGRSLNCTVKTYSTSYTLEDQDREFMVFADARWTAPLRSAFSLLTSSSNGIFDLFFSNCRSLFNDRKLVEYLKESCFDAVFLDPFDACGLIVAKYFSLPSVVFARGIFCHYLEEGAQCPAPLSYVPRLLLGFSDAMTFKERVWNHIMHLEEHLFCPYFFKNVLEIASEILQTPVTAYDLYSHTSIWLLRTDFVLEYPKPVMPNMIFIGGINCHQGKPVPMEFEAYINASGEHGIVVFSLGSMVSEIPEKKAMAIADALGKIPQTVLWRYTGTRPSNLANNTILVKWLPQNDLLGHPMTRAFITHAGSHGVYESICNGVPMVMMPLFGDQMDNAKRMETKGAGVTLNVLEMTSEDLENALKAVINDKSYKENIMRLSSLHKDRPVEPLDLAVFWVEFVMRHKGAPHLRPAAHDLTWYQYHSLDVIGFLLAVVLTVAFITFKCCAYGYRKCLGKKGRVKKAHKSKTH

UGT2B4 = target: T2, UGT2B4 (Homo sapiens, UniProt P06133); test: Screening for aprepitant glucuronidation, UGT2B4 Supersomes; type: in vitro ADME; details: UGT2B4, 5 and 250 µM aprepitant
T2 sequence (P06133 24-528): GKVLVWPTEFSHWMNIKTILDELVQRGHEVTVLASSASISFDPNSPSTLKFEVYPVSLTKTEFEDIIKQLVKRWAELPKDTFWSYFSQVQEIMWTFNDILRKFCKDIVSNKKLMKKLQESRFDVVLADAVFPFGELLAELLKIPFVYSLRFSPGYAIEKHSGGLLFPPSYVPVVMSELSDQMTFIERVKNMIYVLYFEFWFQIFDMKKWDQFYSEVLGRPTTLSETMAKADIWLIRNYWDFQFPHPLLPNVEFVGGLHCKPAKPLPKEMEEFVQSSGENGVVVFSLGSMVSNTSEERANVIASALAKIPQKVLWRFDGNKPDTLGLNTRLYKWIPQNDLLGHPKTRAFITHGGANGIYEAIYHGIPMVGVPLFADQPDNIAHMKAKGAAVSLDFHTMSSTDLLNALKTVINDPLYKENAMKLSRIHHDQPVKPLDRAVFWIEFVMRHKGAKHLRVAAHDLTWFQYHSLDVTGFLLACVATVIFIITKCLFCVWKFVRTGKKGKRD

UGT2B10 = target: T3, UGT2B10 (Homo sapiens, UniProt P36537); test: Screening for aprepitant glucuronidation, UGT2B10 Supersomes; type: in vitro ADME; details: UGT2B10, 5 and 250 µM aprepitant
T3 sequence (P36537 24-528): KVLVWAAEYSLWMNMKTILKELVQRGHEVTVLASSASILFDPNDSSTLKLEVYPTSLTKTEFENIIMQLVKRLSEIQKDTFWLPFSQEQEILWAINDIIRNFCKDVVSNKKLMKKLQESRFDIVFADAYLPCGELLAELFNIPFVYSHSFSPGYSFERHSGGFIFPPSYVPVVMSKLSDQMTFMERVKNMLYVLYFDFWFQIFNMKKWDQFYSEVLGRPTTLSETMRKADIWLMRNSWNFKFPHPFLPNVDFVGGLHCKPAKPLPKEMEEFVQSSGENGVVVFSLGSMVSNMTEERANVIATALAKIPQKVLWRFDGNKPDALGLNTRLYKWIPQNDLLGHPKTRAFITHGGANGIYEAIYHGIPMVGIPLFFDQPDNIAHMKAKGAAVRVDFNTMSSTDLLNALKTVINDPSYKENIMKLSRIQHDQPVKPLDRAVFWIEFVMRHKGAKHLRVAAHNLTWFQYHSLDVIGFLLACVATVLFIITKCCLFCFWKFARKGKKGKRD

UGT2B7 [1] = target: T4, UGT2B7 (Homo sapiens, UniProt P16662); test: Inhibition by aprepitant of UGT2B7; type: in vitro ADME; details: UGT2B7 enzyme, pH 7.5, probe 4-MU
T4 sequence (P16662 24-529): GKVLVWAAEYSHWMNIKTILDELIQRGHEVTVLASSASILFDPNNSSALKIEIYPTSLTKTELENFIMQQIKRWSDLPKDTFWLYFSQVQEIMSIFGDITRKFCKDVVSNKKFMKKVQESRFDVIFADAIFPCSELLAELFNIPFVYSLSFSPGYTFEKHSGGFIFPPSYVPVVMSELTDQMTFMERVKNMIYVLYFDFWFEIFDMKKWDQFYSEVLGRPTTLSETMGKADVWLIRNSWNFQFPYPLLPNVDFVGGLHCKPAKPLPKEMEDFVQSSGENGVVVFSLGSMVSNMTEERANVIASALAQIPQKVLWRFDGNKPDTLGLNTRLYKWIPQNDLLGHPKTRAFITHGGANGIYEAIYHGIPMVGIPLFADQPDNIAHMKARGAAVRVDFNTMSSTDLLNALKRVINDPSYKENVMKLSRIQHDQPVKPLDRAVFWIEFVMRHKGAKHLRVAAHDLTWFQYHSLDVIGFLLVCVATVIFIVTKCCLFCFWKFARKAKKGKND

[2] = Aqueous solubility of aprepitant; type: physicochemical; details: aqueous medium
UGT1A3 = target: T5, UGT1A3 (Homo sapiens, UniProt P35503); details: pH 7.5; for velocity of AP-G formation: 60 min
T5 sequence (P35503 29-534): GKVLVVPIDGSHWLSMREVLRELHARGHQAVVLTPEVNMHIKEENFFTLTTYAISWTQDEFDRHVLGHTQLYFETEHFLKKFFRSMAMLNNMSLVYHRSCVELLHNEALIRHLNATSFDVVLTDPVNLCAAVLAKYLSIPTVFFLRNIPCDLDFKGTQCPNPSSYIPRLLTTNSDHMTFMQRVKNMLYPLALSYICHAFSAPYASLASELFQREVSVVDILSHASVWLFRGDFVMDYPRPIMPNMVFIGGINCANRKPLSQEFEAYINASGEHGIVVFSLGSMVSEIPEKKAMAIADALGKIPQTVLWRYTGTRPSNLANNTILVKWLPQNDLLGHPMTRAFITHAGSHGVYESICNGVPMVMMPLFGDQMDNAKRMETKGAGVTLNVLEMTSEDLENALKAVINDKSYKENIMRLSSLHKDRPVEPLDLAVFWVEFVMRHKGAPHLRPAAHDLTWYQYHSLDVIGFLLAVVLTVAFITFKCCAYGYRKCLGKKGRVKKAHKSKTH

UGT2B7 [3] = target: T4, UGT2B7; test: biochemical

AP-G formation (UGT1A7): not detected
AP-G formation (UGT2B4): not detected
AP-G formation (UGT2B10): not detected
inhibition at 1 µM (UGT2B7 [1]): ~17%
inhibition at 10 µM (UGT2B7 [1]): 70%
solubility [2]: ~250 µM (≈ 134 µg/mL)
velocity of AP-G formation (UGT1A3; 5 µM): 44.1 ± 0.7 fmol/min/mg protein
velocity of AP-G formation (UGT1A3; 250 µM): 717.3 ± 18.6 fmol/min/mg protein
CLint (UGT1A3; recombinant enzyme): 15 µl/min/µg protein
Ki (UGT2B7 [3]): ~10 µM and 7.4 µM and 16.3 µM and 6.7 µM
SMILES: C[C@@H](O[C@H]1OCCN(Cc2n[nH]c(=O)[nH]2)[C@H]1c1ccc(F)cc1)c1cc(C(F)(F)F)cc(C(F)(F)F)c1 [aprepitant, Aprepitant]
